{
  "source": "paper PMC4668384",
  "about": "(Scientific Reports, 2015)",
  "key": {"[1]": {"target": "T1, truncated wild type VvCYP51 (Ustilaginoidea virens (Villosiclava virens), UniProt X2GGV8)", "T1 sequence (X2GGV8 29-528)": "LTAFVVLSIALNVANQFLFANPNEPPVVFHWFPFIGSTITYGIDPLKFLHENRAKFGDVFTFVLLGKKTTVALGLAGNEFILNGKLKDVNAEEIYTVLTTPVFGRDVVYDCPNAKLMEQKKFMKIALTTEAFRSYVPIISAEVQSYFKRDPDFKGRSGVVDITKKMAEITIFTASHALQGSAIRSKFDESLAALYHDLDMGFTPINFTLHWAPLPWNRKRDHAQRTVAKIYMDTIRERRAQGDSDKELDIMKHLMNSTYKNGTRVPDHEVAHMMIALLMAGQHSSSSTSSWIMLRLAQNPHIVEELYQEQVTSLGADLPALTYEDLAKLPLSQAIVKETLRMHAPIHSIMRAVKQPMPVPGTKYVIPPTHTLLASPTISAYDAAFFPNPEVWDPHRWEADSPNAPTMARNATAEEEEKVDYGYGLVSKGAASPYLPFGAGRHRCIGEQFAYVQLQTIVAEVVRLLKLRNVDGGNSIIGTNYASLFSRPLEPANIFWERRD", "assay": "UV-visible spectral binding assay, truncated wild type protein"}, "[2]": {"system": "V. virens pB-Vv51wt transformants (P-F)", "assay": "Tebuconazole sensitivity, mycelial growth on amended PSA, pB-Vv51wt transformants", "format": "cell-based, Villosiclava virens", "conditions": "Ustilaginoidea virens"}, "[3]": {"system": "V. virens isolate FJ4-1b (wild type)", "assay": "Tebuconazole sensitivity, mycelial growth on amended PSA, wild type isolate", "format": "cell-based, Villosiclava virens", "conditions": "Ustilaginoidea virens, 336 h, 28 °C, 14 days", "description": "Mycelial plugs (6 mm) were transferred in triplicates from the margins of 14-day old colonies to 9 cm petri dishes containing nonamended or tebuconazole-amended PSA. Dishes were incubated at 28 °C for 14 days in darkness. The average colony diameter was measured in two perpendicular directions, and the EC50 value was determined by regressing percentage growth inhibition against the log of fungicide concentration."}, "[4]": {"system": "VvCYP51 gene expression in isolate FJ4-1b", "assay": "Induction of VvCYP51 gene expression by tebuconazole (real-time PCR)", "conditions": "0.1 μg/ml tebuconazole for 6 h, versus untreated control", "experimental": "The wild type isolates, mutant, and transformants were grown in 50 ml of PSB at 28 °C for 7 days on a 160 rpm orbital shaker. Total RNA was extracted from mycelia using the TRIzole reagent (Aidlab, Beijing, China), then digested with DNase I nuclease (Takara, Dalian, China) to remove DNA contamination. The cDNA was synthesized using a RevertAid First Strand cDNA Synthesis Kit employing the oligo(dT)18 primer (Thermo Fisher Scientific, Waltham, MA). The expression of the VvCYP51 gene was evaluated by real-time PCR using the primer pair RealCYP51-F/RealCYP51-R. Expression was normalized with the α-tubulin gene. Relative expression was calculated using the comparative Ct (2^−ΔΔCt) method[51]. […] Real-time PCR amplifications of VvCYP51 were performed in a CFX96 Real-Time PCR Detection System (Bio-Rad Laboratories Inc., Hercules, CA) using SYBR Green I fluorescent dye. Amplifications were conducted in a 20-μl volume containing 10 μl of SYBR qPCR Mix (Aidlab, Beijing, China), 1 μl of RT product and 0.2 μM of each primer. All samples were in triplicates with the following profile: an initial preheat at 95 °C for 2 min, followed by 40 cycles at 95 °C for 20 s, 60 °C for 20 s and 72 °C for 20 s. The entire experiment starting with RNA extractions was repeated four times."}},
  "note": "Like-named read-outs stand apart in the source and are kept apart here.",
  "data": [
    {"smiles": "CC(C)(C)C(O)(CCc1ccc(Cl)cc1)Cn1cncn1", "note": "(stereo not drawn) [tebuconazole]", "values": [
      {"measurement": "Kd", "setting": "[1]; bound for the three different truncated wild type VvCYP51 proteins, read-out: Kd values", "result": "< 40", "unit": "nM"},
      {"measurement": "Kd", "setting": "[1]; wild type VvCYP51, −28aa N-terminal truncation, read-out: Kd", "result": "37 ± 2.7", "unit": "nM"},
      {"measurement": "Kd", "setting": "[1]; wild type VvCYP51, −42aa N-terminal truncation, read-out: Kd", "result": "34 ± 2.3", "unit": "nM"},
      {"measurement": "Kd", "setting": "[1]; wild type VvCYP51, −74aa N-terminal truncation, read-out: Kd", "result": "37 ± 2.5", "unit": "nM"},
      {"measurement": "EC50", "setting": "[2]; 336 h, read-out: EC50 value, transformant P-F 4, mycelial growth on PSA, 28 °C, 14 days", "result": 0.11, "unit": "µg/mL"},
      {"measurement": "EC50", "setting": "[2]; 336 h, read-out: EC50 value, transformant P-F 7, mycelial growth on PSA, 28 °C, 14 days", "result": 0.24, "unit": "µg/mL"},
      {"measurement": "EC50", "setting": "[2]; 336 h, read-out: EC50 value, transformant P-F 8, mycelial growth on PSA, 28 °C, 14 days", "result": 0.13, "unit": "µg/mL"},
      {"measurement": "EC50", "setting": "[2]; 336 h, read-out: EC50 value, transformant P-F 9, mycelial growth on PSA, 28 °C, 14 days", "result": 0.15, "unit": "µg/mL"},
      {"measurement": "EC50", "setting": "[2]; 336 h, read-out: EC50 value, transformant P-F 10, mycelial growth on PSA, 28 °C, 14 days", "result": 0.12, "unit": "µg/mL"},
      {"measurement": "EC50", "setting": "[2]; 336 h, read-out: EC50 value, transformant P-F 13, mycelial growth on PSA, 28 °C, 14 days", "result": 0.11, "unit": "µg/mL"},
      {"measurement": "EC50", "setting": "[2]; 336 h, read-out: EC50 value, transformant P-F 14, mycelial growth on PSA, 28 °C, 14 days", "result": 0.28, "unit": "µg/mL"},
      {"measurement": "EC50", "setting": "[2]; 336 h, read-out: EC50 value, transformant P-F 15, mycelial growth on PSA, 28 °C, 14 days", "result": 0.13, "unit": "µg/mL"},
      {"measurement": "EC50", "setting": "[2]; 336 h, read-out: EC50 value, transformant P-F 16, mycelial growth on PSA, 28 °C, 14 days", "result": 0.13, "unit": "µg/mL"},
      {"measurement": "EC50", "setting": "[2]; 336 h, read-out: EC50 value, transformant P-F 17, mycelial growth on PSA, 28 °C, 14 days", "result": 0.2, "unit": "µg/mL"},
      {"measurement": "EC50", "setting": "[2]; 336 h, read-out: EC50 value, transformant P-F 20, mycelial growth on PSA, 28 °C, 14 days", "result": 0.27, "unit": "µg/mL"},
      {"measurement": "EC50", "setting": "[2]; 336 h, read-out: EC50 value, transformant P-F 22, mycelial growth on PSA, 28 °C, 14 days", "result": 0.15, "unit": "µg/mL"},
      {"measurement": "EC50", "setting": "[2]; 336 h, read-out: EC50 value, transformant P-F 23, mycelial growth on PSA, 28 °C, 14 days", "result": 0.2, "unit": "µg/mL"},
      {"measurement": "EC50", "setting": "[2]; 336 h, read-out: EC50 value, transformant P-F 25, mycelial growth on PSA, 28 °C, 14 days", "result": 0.15, "unit": "µg/mL"},
      {"measurement": "EC50", "setting": "[2]; 336 h, read-out: EC50 value, transformant P-F 26, mycelial growth on PSA, 28 °C, 14 days", "result": 0.18, "unit": "µg/mL"},
      {"measurement": "EC50", "setting": "[2]; 336 h, read-out: EC50 value, transformant P-F 28, mycelial growth on PSA, 28 °C, 14 days", "result": 0.13, "unit": "µg/mL"},
      {"measurement": "EC50", "setting": "[2]; 336 h, read-out: EC50 value, transformant P-F 29, mycelial growth on PSA, 28 °C, 14 days", "result": 0.26, "unit": "µg/mL"},
      {"measurement": "EC50", "setting": "[2]; 336 h, read-out: EC50 value, transformant P-F 31, mycelial growth on PSA, 28 °C, 14 days", "result": 0.25, "unit": "µg/mL"},
      {"measurement": "EC50", "setting": "[2]; 336 h, read-out: EC50 value, transformant P-F 32, mycelial growth on PSA, 28 °C, 14 days", "result": 0.32, "unit": "µg/mL"},
      {"measurement": "EC50", "setting": "[2]; 336 h, read-out: EC50 value, transformant P-F 33, mycelial growth on PSA, 28 °C, 14 days", "result": 0.12, "unit": "µg/mL"},
      {"measurement": "EC50", "setting": "[2]; 336 h, read-out: EC50 value, transformant P-F 34, mycelial growth on PSA, 28 °C, 14 days", "result": 0.15, "unit": "µg/mL"},
      {"measurement": "EC50", "setting": "[2]; 336 h, read-out: EC50 value, transformant P-F 36, mycelial growth on PSA, 28 °C, 14 days", "result": 0.22, "unit": "µg/mL"},
      {"measurement": "EC50", "setting": "[2]; 336 h, read-out: EC50 value, transformant P-F 37, mycelial growth on PSA, 28 °C, 14 days", "result": 0.11, "unit": "µg/mL"},
      {"measurement": "EC50", "setting": "[2]; 336 h, read-out: EC50 value, transformant P-F 38, mycelial growth on PSA, 28 °C, 14 days", "result": 0.31, "unit": "µg/mL"},
      {"measurement": "EC50", "setting": "[2]; 336 h, read-out: EC50 value, transformant P-F 39, mycelial growth on PSA, 28 °C, 14 days", "result": 0.13, "unit": "µg/mL"},
      {"measurement": "EC50", "setting": "[2]; 336 h, read-out: EC50 value, transformant P-F 40, mycelial growth on PSA, 28 °C, 14 days", "result": 0.21, "unit": "µg/mL"},
      {"measurement": "EC50", "setting": "[2]; read-out: EC50 values (range), range over the 26 pB-Vv51wt transformants", "result": "0.11 to 0.32", "unit": "µg/mL"},
      {"measurement": "EC50", "setting": "[3]", "result": 0.04, "unit": "µg/mL"},
      {"measurement": "increase of expression of VvCYP51 gene", "setting": "[4]", "result": 29.94, "unit": "fold"}
    ]}
  ]
}
